Assays:
FASN = FASN (Mus musculus, UniProt P19096); settings: Loftus et al 2000; cited from earlier work
[1] = test system: LDHA expression in HepG2 cells; assay: Wet lab validation of LDHA expression in HepG2 cells; format: cell-based; settings: 50 uM or 100 uM CoQ10 for 24 or 48 hours
Method: Protein accession number P00338 is LDHA. Wet lab validation of proteomics data were performed for LDHA expression in HepG2 cells (see FIG. 20).

Bcl2 in melanoma cell = assay: Bcl2 level in melanoma cell in the presence of VEGF; format: cell-based
Excerpt: (§1) The term “Multidimensional Intracellular Molecule (MIM)”, is an isolated version or synthetically produced version of an endogenous molecule that is naturally produced by the body and/or is present in at least one cell of a human. A MIM is capable of entering a cell and the entry into the cell includes complete or partial entry into the cell as long as the biologically active portion of the molecule wholly enters the cell. MIMs are capable of inducing a signal transduction and/or gene expression mechanism within a cell. MIMs are multidimensional because the molecules have both a therapeutic and a carrier, e.g., drug delivery, effect. MIMs also are multidimensional because the molecules act one way in a disease state and a different way in a normal state. For example, in the case of CoQ-10, administration of CoQ-10 to a melanoma cell in the presence of VEGF leads to a decreased level of Bcl2 which, in turn, leads to a decreased oncogenic potential for the melanoma cell. In contrast, in a normal fibroblast, co-administration of CoQ-10 and VEFG has no effect on the levels of Bcl2.

[2] = test system: Bcl2 in normal fibroblast; assay: Bcl2 level in normal fibroblast with VEGF co-administration; format: cell-based
Excerpt: as §1

[3] = test system: human mitochondrial energy metabolism genes; assay: Transcriptional profiling of diabetic cardiomyocytes; format: cell-based; settings: diabetic cardiomyocytes treated with diabetic drug plus rescue molecule (T+R) vs untreated (UT)
Method: Human cardiomyocytes were subject to conditions simulating an diabetic environment experienced by the disease-relevant cells in vivo. Specifically, the cells were exposed to hyperglycemic conditions and hyperlipidemia conditions. The hyperglycemic condition was induced by culturing cells in media containing 22 mM glucose. The hyperlipidemia condition was induced by culturing the cells in media containing 1 mM L-carnitine, 0.7 mM Oleic acid and 0.7 mM Linoleic acid. […]
iProfiling of changes in total cellular protein expression by quantitative proteomics was performed for cell and media samples collected for each condition and with each “environmental perturbation”, i.e, diabetic drug treatment, Coenzyme Q10 treatment or both, using the techniques described above in the detailed description. […] Following data collection (Ct), the final fold change over control was determined using the δCt method as outlined in manufacturer's protocol. […] Functional assays such as Oxygen consumption rate OCR were measured by employing the Seahorse analyzer essentially as recommended by the manufacturer. OCR was recorded by the electrodes in a 7 μl chamber created with the cartridge pushing against the seahorse culture plate. […]

FASN, sequence (P19096 whole entry): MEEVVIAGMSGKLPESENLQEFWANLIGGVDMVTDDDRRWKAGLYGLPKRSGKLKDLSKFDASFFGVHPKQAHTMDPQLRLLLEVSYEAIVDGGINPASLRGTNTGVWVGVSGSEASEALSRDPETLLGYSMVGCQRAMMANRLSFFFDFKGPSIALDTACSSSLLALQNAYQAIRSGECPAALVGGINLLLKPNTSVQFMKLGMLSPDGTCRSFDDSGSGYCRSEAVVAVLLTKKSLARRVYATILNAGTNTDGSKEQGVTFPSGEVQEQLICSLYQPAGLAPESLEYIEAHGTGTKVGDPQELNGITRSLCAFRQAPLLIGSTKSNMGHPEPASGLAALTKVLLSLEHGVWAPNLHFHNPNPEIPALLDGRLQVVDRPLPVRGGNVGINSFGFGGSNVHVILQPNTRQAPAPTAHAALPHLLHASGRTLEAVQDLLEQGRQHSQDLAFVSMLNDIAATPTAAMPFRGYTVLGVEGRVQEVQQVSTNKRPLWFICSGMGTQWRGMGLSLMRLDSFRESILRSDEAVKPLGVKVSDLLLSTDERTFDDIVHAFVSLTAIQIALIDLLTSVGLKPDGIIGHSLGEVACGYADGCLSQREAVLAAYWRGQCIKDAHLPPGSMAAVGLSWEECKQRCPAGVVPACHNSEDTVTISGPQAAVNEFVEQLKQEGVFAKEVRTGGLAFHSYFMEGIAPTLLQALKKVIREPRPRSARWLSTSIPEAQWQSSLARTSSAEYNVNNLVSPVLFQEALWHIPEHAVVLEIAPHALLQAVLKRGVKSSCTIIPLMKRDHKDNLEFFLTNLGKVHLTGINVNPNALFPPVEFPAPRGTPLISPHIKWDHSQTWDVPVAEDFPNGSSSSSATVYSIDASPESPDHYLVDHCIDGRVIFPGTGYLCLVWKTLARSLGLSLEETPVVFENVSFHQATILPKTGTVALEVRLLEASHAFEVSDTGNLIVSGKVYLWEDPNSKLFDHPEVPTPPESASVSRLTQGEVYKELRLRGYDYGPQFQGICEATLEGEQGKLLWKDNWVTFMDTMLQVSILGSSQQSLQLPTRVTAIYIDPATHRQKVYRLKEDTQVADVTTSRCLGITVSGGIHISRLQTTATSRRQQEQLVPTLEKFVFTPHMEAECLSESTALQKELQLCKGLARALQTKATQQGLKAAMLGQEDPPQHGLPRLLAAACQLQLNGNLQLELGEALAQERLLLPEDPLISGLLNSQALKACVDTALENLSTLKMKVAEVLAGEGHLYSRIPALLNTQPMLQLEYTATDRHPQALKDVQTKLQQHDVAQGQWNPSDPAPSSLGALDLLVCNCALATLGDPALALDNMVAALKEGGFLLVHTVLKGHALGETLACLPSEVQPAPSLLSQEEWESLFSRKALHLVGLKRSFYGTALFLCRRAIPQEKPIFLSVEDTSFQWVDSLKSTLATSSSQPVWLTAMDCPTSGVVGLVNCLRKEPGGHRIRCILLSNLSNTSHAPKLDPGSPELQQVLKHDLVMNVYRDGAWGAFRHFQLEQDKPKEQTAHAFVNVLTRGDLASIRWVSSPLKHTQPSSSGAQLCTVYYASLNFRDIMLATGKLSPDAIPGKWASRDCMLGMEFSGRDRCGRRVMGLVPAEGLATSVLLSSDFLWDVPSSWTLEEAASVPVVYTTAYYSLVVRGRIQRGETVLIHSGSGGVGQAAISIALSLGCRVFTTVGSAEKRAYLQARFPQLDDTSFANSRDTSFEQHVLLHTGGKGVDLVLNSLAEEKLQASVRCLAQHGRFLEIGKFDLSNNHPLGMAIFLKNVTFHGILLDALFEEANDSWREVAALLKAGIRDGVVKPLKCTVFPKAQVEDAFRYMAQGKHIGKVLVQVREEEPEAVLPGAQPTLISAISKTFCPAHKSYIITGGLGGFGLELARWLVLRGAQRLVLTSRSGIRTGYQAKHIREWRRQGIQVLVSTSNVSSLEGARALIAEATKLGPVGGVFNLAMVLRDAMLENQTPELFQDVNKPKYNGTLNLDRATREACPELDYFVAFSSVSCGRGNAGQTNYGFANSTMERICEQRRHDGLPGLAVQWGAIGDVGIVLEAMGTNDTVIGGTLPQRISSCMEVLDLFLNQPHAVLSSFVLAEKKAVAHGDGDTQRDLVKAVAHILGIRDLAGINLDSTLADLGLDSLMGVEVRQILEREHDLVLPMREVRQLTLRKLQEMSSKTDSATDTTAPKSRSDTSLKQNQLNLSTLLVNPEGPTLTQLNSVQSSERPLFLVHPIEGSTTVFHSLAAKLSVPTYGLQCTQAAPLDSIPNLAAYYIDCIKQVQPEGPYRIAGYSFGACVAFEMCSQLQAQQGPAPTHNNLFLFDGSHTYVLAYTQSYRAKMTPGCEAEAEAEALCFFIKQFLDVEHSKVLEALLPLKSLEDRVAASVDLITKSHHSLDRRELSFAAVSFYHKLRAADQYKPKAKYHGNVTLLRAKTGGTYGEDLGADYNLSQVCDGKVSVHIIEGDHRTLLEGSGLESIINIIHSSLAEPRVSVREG

C=C1C(=O)OC(CCCCCCCC)C1C(=O)O (stereo not drawn) [C75]
food intake (FASN): reducing | weight loss (FASN): effectuate weight loss

C/C=C/C/C=C/CCC(=O)[C@H]1O[C@H]1C(N)=O [Cerulenin]
food intake (FASN): reducing | weight loss (FASN): effectuate weight loss

COC1=C(OC)C(=O)C(C/C=C(\C)CC/C=C(\C)CC/C=C(\C)CC/C=C(\C)CC/C=C(\C)CC/C=C(\C)CC/C=C(\C)CC/C=C(\C)CC/C=C(\C)CCC=C(C)C)=C(C)C1=O [Coenzyme Q10]
LDHA expression levels [1]: decreased | level of Bcl2 (Bcl2 in melanoma cell): decreased | levels of Bcl2 [2]: no effect | gene expression and transcription of mitochondrial energy metabolism genes, rescue [3]: normalize | gene expression and transcription of mitochondrial energy metabolism genes, rescue ([3]; listed as R): normalizes
